The molecules below were run on Bipolaris oryzae (assay: Fungicidal activity against Bipolaris oryzae assessed as inhibition at 10 ppm measured after 96 hr by agar growth technique).
Format: functional

| Structure (SMILES) | inhibition at 10 ppm |
| --- | --- |
| CC1(C)SC(Nc2ccccc2)=NN1C(=O)COc1ccc(Cl)cc1 | 59% |
| Cc1ccc(NC2=NN(C(=O)COc3cccc(C)c3)C(C)(C)S2)cc1 | 48% |
| COc1ccc(NC2=NN(C(=O)COc3cccc(C)c3)C(C)(C)S2)cc1 | 36% |
| O=C(COc1ccccc1Cl)N1N=C(Nc2ccccc2)SC1c1ccccc1 (stereo not drawn) | 75% |
| CC1(C)SC(Nc2ccc(Cl)cc2)=NN1C(=O)COc1ccccc1Cl | 39% |
| COc1ccc(NC2=NN(C(=O)COc3ccccc3Cl)C(c3ccccc3)S2)cc1 (stereo not drawn) | 44% |
| Cc1cccc(OCC(=O)N2N=C(Nc3ccc(Cl)cc3)SC2c2ccccc2)c1 (stereo not drawn) | 38% |
| O=C(COc1ccccc1Cl)N1N=C(Nc2ccc(Cl)cc2)SC1c1ccccc1 (stereo not drawn) | 78% |

What follows are molecules tested on Bipolaris oryzae (assay: Fungicidal activity against Bipolaris oryzae assessed as inhibition at 100 ppm measured after 96 hr by agar growth technique).
Format: functional

| Structure (SMILES) | inhibition at 100 ppm |
| --- | --- |
| CC1(C)SC(Nc2ccccc2)=NN1C(=O)COc1ccc(Cl)cc1 | 67% |
| Cc1ccc(NC2=NN(C(=O)COc3cccc(C)c3)C(C)(C)S2)cc1 | 63% |
| COc1ccc(NC2=NN(C(=O)COc3cccc(C)c3)C(C)(C)S2)cc1 | 54% |
| O=C(COc1ccccc1Cl)N1N=C(Nc2ccccc2)SC1c1ccccc1 (stereo not drawn) | 80% |
| CC1(C)SC(Nc2ccc(Cl)cc2)=NN1C(=O)COc1ccccc1Cl | 48% |
| COc1ccc(NC2=NN(C(=O)COc3ccccc3Cl)C(c3ccccc3)S2)cc1 (stereo not drawn) | 58% |
| Cc1cccc(OCC(=O)N2N=C(Nc3ccc(Cl)cc3)SC2c2ccccc2)c1 (stereo not drawn) | 48% |
| O=C(COc1ccccc1Cl)N1N=C(Nc2ccc(Cl)cc2)SC1c1ccccc1 (stereo not drawn) | 80% |

Each molecule was assayed on Bipolaris oryzae (assay: Fungicidal activity against Bipolaris oryzae assessed as inhibition at 1000 ppm measured after 96 hr by agar growth technique).
Format: functional

| Structure (SMILES) | inhibition at 1000 ppm |
| --- | --- |
| CC1(C)SC(Nc2ccccc2)=NN1C(=O)COc1ccc(Cl)cc1 | 76% |
| Cc1ccc(NC2=NN(C(=O)COc3cccc(C)c3)C(C)(C)S2)cc1 | 71% |
| COc1ccc(NC2=NN(C(=O)COc3cccc(C)c3)C(C)(C)S2)cc1 | 65% |
| O=C(COc1ccccc1Cl)N1N=C(Nc2ccccc2)SC1c1ccccc1 (stereo not drawn) | 90% |
| CC1(C)SC(Nc2ccc(Cl)cc2)=NN1C(=O)COc1ccccc1Cl | 58% |
| COc1ccc(NC2=NN(C(=O)COc3ccccc3Cl)C(c3ccccc3)S2)cc1 (stereo not drawn) | 63% |
| Cc1cccc(OCC(=O)N2N=C(Nc3ccc(Cl)cc3)SC2c2ccccc2)c1 (stereo not drawn) | 58% |
| O=C(COc1ccccc1Cl)N1N=C(Nc2ccc(Cl)cc2)SC1c1ccccc1 (stereo not drawn) | 92% |

What follows are molecules tested on Aspergillus niger (assay: Fungicidal activity against Aspergillus niger assessed as inhibition at 10 ppm measured after 96 hr by agar growth technique).
Format: functional

| Structure (SMILES) | inhibition at 10 ppm |
| --- | --- |
| CC1(C)SC(Nc2ccccc2)=NN1C(=O)COc1ccc(Cl)cc1 | 45% |
| Cc1ccc(NC2=NN(C(=O)COc3cccc(C)c3)C(C)(C)S2)cc1 | 54% |
| COc1ccc(NC2=NN(C(=O)COc3cccc(C)c3)C(C)(C)S2)cc1 | 43% |
| O=C(COc1ccccc1Cl)N1N=C(Nc2ccccc2)SC1c1ccccc1 (stereo not drawn) | 77% |
| CC1(C)SC(Nc2ccc(Cl)cc2)=NN1C(=O)COc1ccccc1Cl | 49% |
| COc1ccc(NC2=NN(C(=O)COc3ccccc3Cl)C(c3ccccc3)S2)cc1 (stereo not drawn) | 44% |
| Cc1cccc(OCC(=O)N2N=C(Nc3ccc(Cl)cc3)SC2c2ccccc2)c1 (stereo not drawn) | 40% |
| O=C(COc1ccccc1Cl)N1N=C(Nc2ccc(Cl)cc2)SC1c1ccccc1 (stereo not drawn) | 78% |

The molecules below were run on Aspergillus niger (assay: Fungicidal activity against Aspergillus niger assessed as inhibition at 100 ppm measured after 96 hr by agar growth technique).
Format: functional

| Structure (SMILES) | inhibition at 100 ppm |
| --- | --- |
| CC1(C)SC(Nc2ccccc2)=NN1C(=O)COc1ccc(Cl)cc1 | 69% |
| Cc1ccc(NC2=NN(C(=O)COc3cccc(C)c3)C(C)(C)S2)cc1 | 68% |
| COc1ccc(NC2=NN(C(=O)COc3cccc(C)c3)C(C)(C)S2)cc1 | 58% |
| O=C(COc1ccccc1Cl)N1N=C(Nc2ccccc2)SC1c1ccccc1 (stereo not drawn) | 82% |
| CC1(C)SC(Nc2ccc(Cl)cc2)=NN1C(=O)COc1ccccc1Cl | 50% |
| COc1ccc(NC2=NN(C(=O)COc3ccccc3Cl)C(c3ccccc3)S2)cc1 (stereo not drawn) | 59% |
| Cc1cccc(OCC(=O)N2N=C(Nc3ccc(Cl)cc3)SC2c2ccccc2)c1 (stereo not drawn) | 49% |
| O=C(COc1ccccc1Cl)N1N=C(Nc2ccc(Cl)cc2)SC1c1ccccc1 (stereo not drawn) | 83% |

These molecules were tested on Setaria viridis (assay: Herbicidal activity against Setaria viridis (green foxtail) assessed as killing at 6 kg/ha by post-emergent activity assay).
Format: functional

| Structure (SMILES) | Activity |
| --- | --- |
| CC1(C)SC(Nc2ccccc2)=NN1C(=O)COc1ccc(Cl)cc1 | 40% |
| Cc1ccc(NC2=NN(C(=O)COc3cccc(C)c3)C(C)(C)S2)cc1 | 20% |
| COc1ccc(NC2=NN(C(=O)COc3cccc(C)c3)C(C)(C)S2)cc1 | 100% |
| O=C(COc1ccccc1Cl)N1N=C(Nc2ccccc2)SC1c1ccccc1 (stereo not drawn) | 50% |
| CC1(C)SC(Nc2ccc(Cl)cc2)=NN1C(=O)COc1ccccc1Cl | 50% |
| COc1ccc(NC2=NN(C(=O)COc3ccccc3Cl)C(c3ccccc3)S2)cc1 (stereo not drawn) | 100% |
| Cc1cccc(OCC(=O)N2N=C(Nc3ccc(Cl)cc3)SC2c2ccccc2)c1 (stereo not drawn) | 50% |
| O=C(COc1ccccc1Cl)N1N=C(Nc2ccc(Cl)cc2)SC1c1ccccc1 (stereo not drawn) | 60% |

What follows are molecules tested on Aspergillus niger (assay: Fungicidal activity against Aspergillus niger assessed as inhibition at 1000 ppm measured after 96 hr by agar growth technique).
Format: functional

| Structure (SMILES) | inhibition at 1000 ppm |
| --- | --- |
| CC1(C)SC(Nc2ccccc2)=NN1C(=O)COc1ccc(Cl)cc1 | 78% |
| Cc1ccc(NC2=NN(C(=O)COc3cccc(C)c3)C(C)(C)S2)cc1 | 75% |
| COc1ccc(NC2=NN(C(=O)COc3cccc(C)c3)C(C)(C)S2)cc1 | 69% |
| O=C(COc1ccccc1Cl)N1N=C(Nc2ccccc2)SC1c1ccccc1 (stereo not drawn) | 92% |
| CC1(C)SC(Nc2ccc(Cl)cc2)=NN1C(=O)COc1ccccc1Cl | 62% |
| COc1ccc(NC2=NN(C(=O)COc3ccccc3Cl)C(c3ccccc3)S2)cc1 (stereo not drawn) | 65% |
| Cc1cccc(OCC(=O)N2N=C(Nc3ccc(Cl)cc3)SC2c2ccccc2)c1 (stereo not drawn) | 62% |
| O=C(COc1ccccc1Cl)N1N=C(Nc2ccc(Cl)cc2)SC1c1ccccc1 (stereo not drawn) | 92% |

These molecules were tested on Abutilon theophrasti (assay: Herbicidal activity against Abutilon theophrasti (velvetleaf) assessed as killing at 6 kg/ha by post-emergent activity assay).
Format: functional

| Structure (SMILES) | Activity |
| --- | --- |
| CC1(C)SC(Nc2ccccc2)=NN1C(=O)COc1ccc(Cl)cc1 | 40% |
| Cc1ccc(NC2=NN(C(=O)COc3cccc(C)c3)C(C)(C)S2)cc1 | 30% |
| COc1ccc(NC2=NN(C(=O)COc3cccc(C)c3)C(C)(C)S2)cc1 | 100% |
| O=C(COc1ccccc1Cl)N1N=C(Nc2ccccc2)SC1c1ccccc1 (stereo not drawn) | 50% |
| CC1(C)SC(Nc2ccc(Cl)cc2)=NN1C(=O)COc1ccccc1Cl | 40% |
| COc1ccc(NC2=NN(C(=O)COc3ccccc3Cl)C(c3ccccc3)S2)cc1 (stereo not drawn) | 100% |
| Cc1cccc(OCC(=O)N2N=C(Nc3ccc(Cl)cc3)SC2c2ccccc2)c1 (stereo not drawn) | 50% |
| O=C(COc1ccccc1Cl)N1N=C(Nc2ccc(Cl)cc2)SC1c1ccccc1 (stereo not drawn) | 50% |

What follows are molecules tested on Echinochloa crus-galli (assay: Herbicidal activity against Echinochloa crus-galli (barnyard grass) assessed as killing at 6 kg/ha by post-emergent activity assay).
Format: functional

| Structure (SMILES) | Activity |
| --- | --- |
| CC1(C)SC(Nc2ccccc2)=NN1C(=O)COc1ccc(Cl)cc1 | 50% |
| Cc1ccc(NC2=NN(C(=O)COc3cccc(C)c3)C(C)(C)S2)cc1 | 60% |
| COc1ccc(NC2=NN(C(=O)COc3cccc(C)c3)C(C)(C)S2)cc1 | 100% |
| O=C(COc1ccccc1Cl)N1N=C(Nc2ccccc2)SC1c1ccccc1 (stereo not drawn) | 50% |
| CC1(C)SC(Nc2ccc(Cl)cc2)=NN1C(=O)COc1ccccc1Cl | 50% |
| COc1ccc(NC2=NN(C(=O)COc3ccccc3Cl)C(c3ccccc3)S2)cc1 (stereo not drawn) | 100% |
| Cc1cccc(OCC(=O)N2N=C(Nc3ccc(Cl)cc3)SC2c2ccccc2)c1 (stereo not drawn) | 60% |
| O=C(COc1ccccc1Cl)N1N=C(Nc2ccc(Cl)cc2)SC1c1ccccc1 (stereo not drawn) | 60% |

The molecules below were run on Triticum aestivum (assay: Herbicidal activity against Triticum aestivum (wheat) assessed as killing at 6 kg/ha by post-emergent activity assay).
Format: functional

| Structure (SMILES) | Activity |
| --- | --- |
| CC1(C)SC(Nc2ccccc2)=NN1C(=O)COc1ccc(Cl)cc1 | 0% |
| Cc1ccc(NC2=NN(C(=O)COc3cccc(C)c3)C(C)(C)S2)cc1 | 15% |
| COc1ccc(NC2=NN(C(=O)COc3cccc(C)c3)C(C)(C)S2)cc1 | 10% |
| O=C(COc1ccccc1Cl)N1N=C(Nc2ccccc2)SC1c1ccccc1 (stereo not drawn) | 20% |
| CC1(C)SC(Nc2ccc(Cl)cc2)=NN1C(=O)COc1ccccc1Cl | 10% |
| COc1ccc(NC2=NN(C(=O)COc3ccccc3Cl)C(c3ccccc3)S2)cc1 (stereo not drawn) | 10% |
| Cc1cccc(OCC(=O)N2N=C(Nc3ccc(Cl)cc3)SC2c2ccccc2)c1 (stereo not drawn) | 15% |
| O=C(COc1ccccc1Cl)N1N=C(Nc2ccc(Cl)cc2)SC1c1ccccc1 (stereo not drawn) | 25% |

These molecules were tested on Sorghum halepense (assay: Herbicidal activity against Sorghum halepense (Johnson grass) assessed as killing at 6 kg/ha by post-emergent activity assay).
Format: functional

| Structure (SMILES) | Activity |
| --- | --- |
| CC1(C)SC(Nc2ccccc2)=NN1C(=O)COc1ccc(Cl)cc1 | 60% |
| Cc1ccc(NC2=NN(C(=O)COc3cccc(C)c3)C(C)(C)S2)cc1 | 50% |
| COc1ccc(NC2=NN(C(=O)COc3cccc(C)c3)C(C)(C)S2)cc1 | 100% |
| O=C(COc1ccccc1Cl)N1N=C(Nc2ccccc2)SC1c1ccccc1 (stereo not drawn) | 60% |
| CC1(C)SC(Nc2ccc(Cl)cc2)=NN1C(=O)COc1ccccc1Cl | 30% |
| COc1ccc(NC2=NN(C(=O)COc3ccccc3Cl)C(c3ccccc3)S2)cc1 (stereo not drawn) | 90% |
| Cc1cccc(OCC(=O)N2N=C(Nc3ccc(Cl)cc3)SC2c2ccccc2)c1 (stereo not drawn) | 60% |
| O=C(COc1ccccc1Cl)N1N=C(Nc2ccc(Cl)cc2)SC1c1ccccc1 (stereo not drawn) | 40% |
